Data from PubChem BioAssay AID1159558 (GlaxoSmithKline (GSK), 2015).
The source made the active and inactive calls.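 The calls were made as follows: active = IC50 against T. cruzi CYP51 below a set limit; inactive = the rest.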

Biological target: Sterol 14-alpha demethylase (Trypanosoma cruzi (strain CL Brener)) (UniProt Q7Z1V1)
Assay: T. cruzi sterol 14-alpha demethylase inhibition – biochemical, recombinant enzyme, mechanism study for T. cruzi antiparasitic project, dose response (AID 1159558);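 also: enzyme in bacterial membranes with Anopheles gambiae CYP reductase and cytochrome b5 partners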
Conditions: recombinant T. cruzi CYP51, BOMCC fluorescence

Sterol 14-alpha demethylase (Trypanosoma cruzi (strain CL Brener)), sequence (Q7Z1V1 whole entry, looked up): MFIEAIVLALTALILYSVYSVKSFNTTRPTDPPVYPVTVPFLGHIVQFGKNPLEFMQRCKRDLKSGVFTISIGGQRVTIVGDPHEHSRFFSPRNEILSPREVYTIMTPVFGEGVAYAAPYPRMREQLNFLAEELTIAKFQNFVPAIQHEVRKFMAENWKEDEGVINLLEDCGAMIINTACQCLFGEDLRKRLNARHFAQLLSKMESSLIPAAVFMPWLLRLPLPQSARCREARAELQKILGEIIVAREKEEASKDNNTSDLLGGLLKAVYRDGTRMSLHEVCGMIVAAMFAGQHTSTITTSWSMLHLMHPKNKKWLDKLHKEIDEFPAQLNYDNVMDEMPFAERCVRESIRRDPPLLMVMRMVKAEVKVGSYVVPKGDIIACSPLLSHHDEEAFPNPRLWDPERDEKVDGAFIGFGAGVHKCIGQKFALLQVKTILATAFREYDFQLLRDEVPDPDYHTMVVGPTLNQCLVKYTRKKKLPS

Row | IC50 | Structure (SMILES)
1 | 16 µM | COc1ccc(S(=O)(=O)NCc2ccc(-c3ccc(CN(C)CCO)cc3)cc2)cc1
2 | > 100 µM (inactive) | COCc1cc(Nc2ccc(Cl)cc2)nc(-c2ccccn2)n1
3 | > 100 µM (inactive) | CCC(=O)Nc1ccc(C(=O)Nc2ccccc2-c2ccccc2)cc1
4 | 0.063 µM | O=C(NCCc1cccnc1)c1ccc(-c2ccccc2F)o1
5 | > 130 µM (inactive) | CN(C)CCN(C)Cc1ccc(F)cc1NS(=O)(=O)c1ccc(Cl)c(Cl)c1
6 | 1.3 µM | COC(=O)c1ccc(-c2cnc3ccc(NCc4ccccn4)nn23)cc1
7 | 0.02 µM | O=C1CN(C2CCCc3c(OCc4ccncc4)cccc32)C(=O)N1C1CCCCC1 (stereo unspecified)
8 | 25 µM | O=C(Nc1nc(-c2ccccn2)cs1)C1CCc2ccccc2C1 (stereo unspecified)
9 | 0.05 µM | O=C(c1ccc(OCCCc2cnc[nH]2)cc1)C1CC1
10 | 25 µM | Cc1nn(-c2nc3ccccc3[nH]2)c2c1C(c1ccc(O)cc1)CC(=O)N2 (stereo unspecified)
11 | 0.063 µM | O=C(NCC(c1cccnc1)N1CCc2ccccc2C1)C(=O)Nc1cccc(Cl)c1 (stereo unspecified)
12 | 0.063 µM | Cc1ccc2nc(N(Cc3cccnc3)C(=O)CCc3ccccc3)sc2c1
13 | > 100 µM (inactive) | O=[N+]([O-])c1ccc(-c2nnn(-c3ccc(Cl)cc3)n2)o1
14 | 40 µM | CS(=O)(=O)c1ccc(Nc2nccc(Nc3n[nH]c4ccc(F)cc34)n2)c(F)c1
15 | 63 µM | CC(=O)Nc1ccc(-c2cnc(N)c(-c3nc4ccc(F)cc4[nH]3)c2)cc1
16 | 0.1 µM | c1ccc(CNc2cccc3ccncc23)cc1
17 | 25 µM | CNS(=O)(=O)c1ccccc1Nc1nc(Nc2cc(C)nn2C)ncc1Cl
18 | 0.079 µM | c1cncc(CN(Cc2ccco2)Cc2cn[nH]c2-c2cccs2)c1
19 | 0.13 µM | COc1ccccc1C=CCN1C[C@H]2CCC[C@@H](C1)C2(O)c1cccnc1 (stereo partly specified)
20 | 0.13 µM | O=C(NC(c1ccc(Cl)cc1)c1cnccn1)C1CCN(C(=O)Nc2cccc(C(F)(F)F)c2)CC1 (stereo unspecified)
21 | 63 µM | O=C(Nc1ccc(C(=O)N2CCCC2c2ccc3c(c2)OCCCO3)cc1)c1ccco1 (stereo unspecified)
22 | 0.04 µM | O=S(=O)(NCC(c1cccnc1)N1CCN(c2ccc(F)cc2)CC1)c1cccs1 (stereo unspecified)
23 | 0.16 µM | O=C(CN(c1cccc(C(F)(F)F)c1)S(=O)(=O)c1ccc(Cl)cc1)NCc1ccc(F)c(F)c1
24 | > 100 µM (inactive) | O=C(Nc1ccc(Br)c(Cl)c1)Nc1ccc2c(c1)OCO2
25 | 32 µM | CCN(CC)S(=O)(=O)c1ccc(OC)c(NC(=O)c2ccc([N+](=O)[O-])s2)c1
26 | 20 µM | Cc1sc(C)c(C(F)(F)F)c1CNCCCNc1cc(=O)c2ccccc2[nH]1
27 | 40 µM | Cc1ccc2onc(Nc3ccnc(Nc4cccc(S(C)(=O)=O)c4)n3)c2c1

Row | IC50 | Structure (SMILES)
28 | 7.9 µM | Cc1cc(C#N)c([N+](=O)[O-])cc1Br
29 | 25 µM | COc1ccccc1C1CC(c2ccc(NS(C)(=O)=O)cc2)=NN1C(=O)c1cccs1 (stereo unspecified)
30 | > 100 µM (inactive) | O=C(COc1ccccc1)Nc1ccccc1C(=O)Nc1nccs1
31 | 3.2 µM | CCc1cccc(CC)c1-n1c(SCC(=O)N2CC(=O)Nc3ccccc32)nnc1-c1cccnc1
32 | > 100 µM (inactive) | O=C(NCC1CCCCC1)c1cnns1
33 | > 100 µM (inactive) | c1ccc(-c2nc(NCc3ccco3)c3ccccc3n2)nc1
34 | > 100 µM (inactive) | Cc1nn(-c2nc(N)nc(-c3ccccn3)n2)c(N)c1-c1ccccc1
35 | 25 µM | CCn1c(NC(=O)Cc2ccc(F)cc2)nc2ccccc21
36 | > 100 µM (inactive) | Cc1cc(C)n(-c2nc(NC(C)(C)C)nc(N3CCOCC3)n2)n1
37 | > 100 µM (inactive) | COc1ccc(C(=O)Nc2ccc(NC(=O)CO)cc2)cc1
38 | 0.032 µM | Clc1ccc(Sc2cnccc2N2CCOCC2)cc1
39 | 50 µM | Cc1nccn1C1CCCN(C(=O)c2cc3c(F)cccc3s2)C1 (stereo unspecified)
40 | > 100 µM (inactive) | C=CCOCC1Cn2nc([N+](=O)[O-])nc2O1 (stereo unspecified)
41 | 20 µM | Cc1ccc(NC(=O)c2ccc([N+](=O)[O-])s2)cc1S(=O)(=O)N1CCOCC1
42 | 3.2 µM | O=C(CN1CCN(c2ccccn2)CC1)Nc1cc(S(=O)(=O)N2CCCCCC2)ccc1Cl
43 | 0.079 µM | Cn1c(CN2CCN(c3ncc(C(F)(F)F)cc3Cl)CC2)nc2ccncc21
44 | > 100 µM (inactive) | CCC(=O)Nc1ccc(-c2nc3ccc(Cl)cc3[nH]2)cc1
45 | 1.3 µM | Cc1cn[nH]c1C1CCCN(Cc2nc3ccccc3n2C)C1 (stereo unspecified)
46 | > 100 µM (inactive) | CCc1ccc2nc(NC(=O)c3cc(N4CCOCC4)ccn3)sc2c1
47 | 63 µM | O=c1cc(CSc2ccc(Cl)cc2)nc(-c2ccccn2)[nH]1
48 | > 100 µM (inactive) | Cn1nc([N+](=O)[O-])nc1Oc1ccc(C(=O)c2ccccc2)cc1
49 | 0.016 µM | Cc1cc(Br)cc(C(=O)c2c(C(C)C)c(=O)[nH]c(=O)n2Cc2ccnc(N)c2)c1
50 | > 100 µM (inactive) | CN(C)Cc1ccc(N2CCC(NS(=O)(=O)c3ccc(Cl)cc3)CC2)cc1
51 | > 100 µM (inactive) | Cc1ccc2sc(NC(=O)Cn3cnc([N+](=O)[O-])n3)nc2c1
52 | > 100 µM (inactive) | O=C(NCc1ccc(-n2cccc2)cc1)c1nc(Cn2ccc([N+](=O)[O-])n2)no1
53 | 25 µM | C[C@@H](Oc1cc(-n2cnc3ccc(C(O)CO)cc32)sc1C(N)=O)c1ccccc1C(F)(F)F (stereo partly specified)
54 | > 100 µM (inactive) | CCOC(=O)c1noc(N)c1-c1ccccc1

Row | IC50 | Structure (SMILES)
55 | 3.2 µM | CC(C)c1nn(-c2nc(N)nc(-c3ccccn3)n2)c(N)c1C1CCCCC1
56 | 0.13 µM | Cc1nc(N2CCC(C(=O)N3CCC(O)(c4cccnc4)CC3)CC2)nc2ccc(C(C)C)cc12
57 | 7.9 µM | COc1ncc(-c2ccc3nccc(-c4ccncc4)c3c2)cc1NS(=O)(=O)C1CC1
58 | 32 µM | Cn1c(CC(=O)NNC(=O)c2ccc3ccccc3n2)nc2ccccc21
59 | 40 µM | NS(=O)(=O)c1ccc(CNC(=O)c2ccc([N+](=O)[O-])s2)cc1
60 | 40 µM | O=C(Cn1cnc2c(-c3ccccc3)csc2c1=O)N1CCCCC1
61 | 40 µM | CCN(CC)c1ncc(C(=O)c2ccc([N+](=O)[O-])o2)s1
62 | 32 µM | O=C(Nc1ccccc1)Nc1nc(-c2ccccn2)cs1
63 | 40 µM | Cc1nc(N2CC(C)OC(C)C2)sc1C(=O)Nc1ccc2c(c1)OCO2 (stereo unspecified)
64 | 0.05 µM | CCCC(=O)N(Cc1ccccn1)c1nc2ccccc2s1
65 | 50 µM | Cc1ccc(Nc2nc(N)nc(CNC(c3nc4ccccc4[nH]3)C(C)C)n2)cc1 (stereo unspecified)
66 | 25 µM | CCCc1cc(C(=O)Nc2ncc(-c3cccc(Br)c3)n2C)n[nH]1
67 | 0.1 µM | O=c1oc2ccccc2n1C1CCN(Cc2ccccc2-c2cccnc2)CC1
68 | > 100 µM (inactive) | O=C(c1ccc(O)c(Cl)c1)N1CCN(c2cnccn2)CC1
69 | 25 µM | CCn1c(-c2nonc2N)nc2c([C@@H](C)O)ncc(O[C@H](CN)c3ccccc3)c21
70 | 0.13 µM | Fc1ccc(OC2CC(NCc3cccc4cn[nH]c34)C2)cc1C(F)(F)F (stereo unspecified)
71 | 40 µM | CN(C)Cc1ccc(-c2ccc(S(=O)(=O)NCC3CCCO3)c(F)c2)cc1 (stereo unspecified)
72 | > 100 µM (inactive) | Cc1[nH]nc(C(F)(F)F)c1NC(=O)CCn1cc(Cl)c([N+](=O)[O-])n1
73 | > 100 µM (inactive) | NC(=O)c1ncccc1Nc1nc(NC2CCC(O)CC2)ncc1Br (stereo unspecified)
74 | 0.04 µM | COc1ccc(C)cc1-c1csc(NC(=O)C(C)n2ccnc2)n1 (stereo unspecified)
75 | > 100 µM (inactive) | CC1CCCCN1C(=O)NCCc1coc(-c2ccc(F)cc2)n1 (stereo unspecified)
76 | 10 µM | Cc1nc2c(-c3ncn[nH]3)cc(NC(=O)Cc3ccccc3)cn2c1C
77 | 79 µM | Cc1ccc(S(=O)(=O)Nc2ccc(CN3CCN(C(=O)c4cccc(C)c4)CC3)cc2)cc1
78 | > 100 µM (inactive) | CCc1c(C)nc(-n2nc(C)cc2NC(=O)COc2ccccc2F)[nH]c1=O
79 | 13 µM | O=C(CC1(O)C(=O)N(Cc2cccs2)c2ccc(Br)cc21)c1cccnc1 (stereo unspecified)
80 | > 100 µM (inactive) | NC(=O)c1ccsc1NC(=O)c1ccc([N+](=O)[O-])s1
81 | > 100 µM (inactive) | COc1ccc(Cc2nc(-c3ncc4cccnc4c3O)n[nH]2)cc1OC

Row | IC50 | Structure (SMILES)
82 | > 100 µM (inactive) | Cc1ccc(C)c(-n2nnnc2Sc2nc([N+](=O)[O-])nn2C)c1
83 | > 100 µM (inactive) | Nc1nc(-c2ccccn2)nc(-n2nc(-c3cccc(C(F)(F)F)c3)cc2N)n1
84 | 7.9 µM | COCCn1c(-c2ccccc2)cnc1NCc1ccccc1OC
85 | > 100 µM (inactive) | CNC(=O)C1Cc2ccccc2N1C(=O)Cc1ccc(OC)cc1 (stereo unspecified)
86 | 7.9 µM | CCN(Cc1cccs1)C(=O)CSc1nnc(-c2ccc3c(c2)OCO3)o1
87 | 100 µM | Cc1ccccc1CNC(=O)CN(Cc1ccccn1)Cc1ccccn1
88 | 50 µM | CC(C)(C)CC(=O)NCc1noc(COc2ccccc2)n1
89 | 0.79 µM | COc1ccnc2[nH]cc(-c3cc(C(=O)N[C@H](CO)c4ccccc4)co3)c12
90 | > 100 µM (inactive) | COc1ccc(C(=O)Nc2cc(C(F)(F)F)ccc2N2CCOCC2)c(OC)c1
91 | 20 µM | Cc1c(Nc2cc(C3CC3)[nH]n2)ccc(C#N)c1Cl
92 | 32 µM | CN(CCOc1ccc(Cl)cc1)Cc1nc(N)nc(N(C)C)n1
93 | 0.32 µM | CCn1nccc1CN(C)C(=O)C=Cc1ccc(Cl)cc1
94 | > 100 µM (inactive) | O=C1NCc2cccc(Nc3nc(NC4CCC(O)CC4)ncc3Br)c21 (stereo unspecified)
95 | 40 µM | CN(C)S(=O)(=O)c1ccc(-c2cnc(N)c(-c3nc4ccc(F)cc4[nH]3)c2)cc1
96 | 0.2 µM | Cc1ccc(S(=O)(=O)Cn2nnnc2C(c2cccnc2)N2CCN(c3ccccc3)CC2)cc1 (stereo unspecified)
97 | > 100 µM (inactive) | Nc1nc(-c2ccccc2)cc(-c2nc3ncccc3[nH]2)n1
98 | 6.3 µM | CC(=O)Nc1ccc(-c2csc(NC(=O)c3ccc([N+](=O)[O-])s3)n2)cc1
99 | 100 µM | CNC(=O)C1Cc2ccccc2N1C(=O)COc1cccc(OC)c1 (stereo unspecified)
100 | 6.3 µM | N#Cc1cccc(CNc2ccc(-c3cnn(CC4CC4)c(=O)c3C#N)cc2)c1
101 | 16 µM | CC(C)S(=O)(=O)c1ccc(-c2cnc(N)c3cc(-c4ccnc(N)n4)ccc23)cc1
102 | 40 µM | Cn1ccnc1-c1nc(NCc2ccccc2Cl)cc(C2CC2)n1
103 | > 100 µM (inactive) | O=C(Nc1ccccc1C(=O)Nc1ccccn1)c1ccco1
104 | > 100 µM (inactive) | O=C1NCCn2ccc(Nc3nc(NC4CCC(O)CC4)ncc3Cl)c21 (stereo unspecified)
105 | 40 µM | COc1ncc(-c2ccc3ncnc(N4CCOCC4)c3c2)cc1NS(C)(=O)=O

Row | Structure (SMILES) | IC50
106 | Cc1nn(-c2nc3ccccc3s2)c2c1C(c1ccc(OCC(N)=O)cc1)SCC(=O)N2 (stereo unspecified) | > 100 µM (inactive)
